Source: US11021444B2, “Antiviral compounds” (priority 2013, dated 2021)
pEC50, pIC50: −log10 of the molar value.

Assays:
recombinant RSV complex = recombinant RSV complex (Human respiratory syncytial virus A, UniProt P28887); assay: RSV Polymerase Inhibition Assay; format: biochemical
In short: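 10 nM recombinant RSV polymerase complex in Tris-HCl pH 7.5, 6 mM MgCl2 with RNA oligonucleotide template and radionucleotides, incubated 2 h at 30 °C with increasing inhibitor concentrations. Reaction stopped with EDTA; radiolabeled RNA product counted by scintillation.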

RSV replicon = assay: microbe, parasite or virus in culture; format: cell-based; details: human respiratory syncytial virus, read-out: EC50, the concentration of the drug required for reducing RSV replicon RNA by 50%

recombinant RSV complex, sequence (P28887 whole entry): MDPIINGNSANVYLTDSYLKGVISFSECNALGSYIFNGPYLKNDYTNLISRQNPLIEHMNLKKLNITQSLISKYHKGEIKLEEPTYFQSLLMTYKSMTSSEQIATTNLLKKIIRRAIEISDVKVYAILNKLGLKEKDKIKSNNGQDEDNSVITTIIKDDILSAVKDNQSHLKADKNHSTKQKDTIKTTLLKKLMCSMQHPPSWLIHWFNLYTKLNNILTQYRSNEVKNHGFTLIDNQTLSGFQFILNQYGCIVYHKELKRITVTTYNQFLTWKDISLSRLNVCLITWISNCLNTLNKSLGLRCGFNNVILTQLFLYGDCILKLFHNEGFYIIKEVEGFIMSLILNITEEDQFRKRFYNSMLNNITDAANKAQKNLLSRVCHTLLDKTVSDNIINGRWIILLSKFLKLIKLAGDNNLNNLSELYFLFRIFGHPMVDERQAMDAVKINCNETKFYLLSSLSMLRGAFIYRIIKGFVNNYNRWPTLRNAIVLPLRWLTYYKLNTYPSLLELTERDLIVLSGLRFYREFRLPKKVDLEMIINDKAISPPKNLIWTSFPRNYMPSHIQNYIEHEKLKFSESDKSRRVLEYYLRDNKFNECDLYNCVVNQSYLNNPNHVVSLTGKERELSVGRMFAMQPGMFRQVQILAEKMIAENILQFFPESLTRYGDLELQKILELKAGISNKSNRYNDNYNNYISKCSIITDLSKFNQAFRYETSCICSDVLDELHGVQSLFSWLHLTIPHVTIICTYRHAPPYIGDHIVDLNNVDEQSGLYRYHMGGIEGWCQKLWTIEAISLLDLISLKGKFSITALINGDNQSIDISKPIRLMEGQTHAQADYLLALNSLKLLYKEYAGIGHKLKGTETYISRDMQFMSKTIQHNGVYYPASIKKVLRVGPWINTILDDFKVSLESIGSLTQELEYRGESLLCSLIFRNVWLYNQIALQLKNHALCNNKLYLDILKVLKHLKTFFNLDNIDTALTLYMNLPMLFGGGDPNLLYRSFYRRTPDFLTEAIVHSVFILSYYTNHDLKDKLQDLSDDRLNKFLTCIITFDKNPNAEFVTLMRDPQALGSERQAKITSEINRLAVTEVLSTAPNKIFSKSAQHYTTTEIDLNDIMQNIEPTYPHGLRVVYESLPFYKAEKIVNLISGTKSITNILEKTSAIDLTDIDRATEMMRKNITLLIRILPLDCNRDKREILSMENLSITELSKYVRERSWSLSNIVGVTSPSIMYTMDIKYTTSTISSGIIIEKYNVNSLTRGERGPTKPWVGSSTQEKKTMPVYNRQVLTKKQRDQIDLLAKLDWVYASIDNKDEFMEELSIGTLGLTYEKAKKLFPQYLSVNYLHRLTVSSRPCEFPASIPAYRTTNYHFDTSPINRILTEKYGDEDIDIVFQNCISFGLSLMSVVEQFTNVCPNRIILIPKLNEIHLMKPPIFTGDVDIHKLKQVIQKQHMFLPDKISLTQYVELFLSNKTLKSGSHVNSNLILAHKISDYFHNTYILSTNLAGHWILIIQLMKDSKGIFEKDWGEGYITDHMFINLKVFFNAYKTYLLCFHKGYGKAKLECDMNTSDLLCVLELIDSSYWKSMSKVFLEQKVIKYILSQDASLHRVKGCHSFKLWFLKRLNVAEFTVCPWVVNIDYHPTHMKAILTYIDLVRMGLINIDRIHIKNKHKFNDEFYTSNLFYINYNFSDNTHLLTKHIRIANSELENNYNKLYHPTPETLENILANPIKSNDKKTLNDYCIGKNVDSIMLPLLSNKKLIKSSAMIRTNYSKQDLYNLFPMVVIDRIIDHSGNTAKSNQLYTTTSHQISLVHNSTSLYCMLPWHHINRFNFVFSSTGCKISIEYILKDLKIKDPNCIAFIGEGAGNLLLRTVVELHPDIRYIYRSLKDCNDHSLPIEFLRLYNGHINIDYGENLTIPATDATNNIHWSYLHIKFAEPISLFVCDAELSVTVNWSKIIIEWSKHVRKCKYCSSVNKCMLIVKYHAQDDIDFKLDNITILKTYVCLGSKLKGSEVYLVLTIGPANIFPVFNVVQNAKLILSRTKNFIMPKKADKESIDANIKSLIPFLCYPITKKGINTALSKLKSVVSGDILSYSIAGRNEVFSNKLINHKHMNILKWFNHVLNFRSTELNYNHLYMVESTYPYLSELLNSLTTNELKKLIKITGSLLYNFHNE
recombinant RSV complex, sequence (P03421 whole entry, further chain): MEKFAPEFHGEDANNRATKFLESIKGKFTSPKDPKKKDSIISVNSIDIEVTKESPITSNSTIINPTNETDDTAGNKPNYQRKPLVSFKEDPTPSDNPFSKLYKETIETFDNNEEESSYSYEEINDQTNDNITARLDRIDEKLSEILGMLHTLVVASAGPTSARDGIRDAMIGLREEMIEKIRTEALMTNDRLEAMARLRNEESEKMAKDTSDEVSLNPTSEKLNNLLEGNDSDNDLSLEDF

In the case of `COc1cc(C(=O)NCC(F)(c2cc(C(C)(C)N)cc(-c3ccc(F)c(Cl)c3)n2)C(F)(F)F)ccc1OC1CC1` (stereo not drawn) [Compound 641], the pIC50 (recombinant RSV complex) was greater than 6.00 and the pEC50 (RSV replicon) was greater than 6.00.

`COc1cc(C(=O)NCC(O)(c2cc3c(c(-c4ccc(F)c(Cl)c4)n2)OCC=C3)C2CC2)ccc1OCCO` (stereo not drawn) [Compound 306] gave a pIC50 (recombinant RSV complex) greater than 6.00 and a pEC50 (RSV replicon) greater than 6.00.

In the case of `COc1cc(C(=O)NCC(O)(c2cc(C3CCNCC3)cc(-c3ccc(F)c(Cl)c3)n2)C(F)(F)F)ccc1OC1CC1` (stereo not drawn) [Compound 576], the pIC50 (recombinant RSV complex) was greater than 6.00 and the pEC50 (RSV replicon) was greater than 6.00.

For `COc1cc(C(=O)NCC(=O)c2cc3c(c(-c4ccc(F)c(Cl)c4)n2)OCCC3(C)C)ccc1OCCO` [Compound 311], the pIC50 (recombinant RSV complex) was greater than 6.00 and the pEC50 (RSV replicon) was greater than 6.00.

Molecule `COc1cc(C(=O)NCC(C)(O)c2cc(C(C)(C)N)cc(-c3ccc(F)cc3)n2)ccc1OCC(N)=O` (stereo not drawn) [Compound 602] has a pIC50 (recombinant RSV complex) greater than 6.00 and a pEC50 (RSV replicon) greater than 6.00.

For `COc1cc(C(=O)NCC(O)(c2cc(C(C)(C)NC3COC3)cc(-c3ccc(F)cc3)n2)C(F)(F)F)ccc1OC1CC1` (stereo not drawn) [Compound 581], the pIC50 (recombinant RSV complex) was greater than 6.00 and the pEC50 (RSV replicon) was greater than 6.00.

`COc1cc(C(=O)NCC(O)(c2cc(C(C)(C)N)cc(-c3ccc(F)c(Cl)c3)n2)C(F)(F)F)ccc1OCC(F)F` (stereo not drawn) [Compound 395] showed a pIC50 (recombinant RSV complex) greater than 6.00 and a pEC50 (RSV replicon) greater than 6.00.

Work on `COc1cc(C(=O)NCC(O)(c2cc(C(C)(C)CN)cc(-c3ccc(F)c(Cl)c3)n2)C(F)(F)F)ccc1OC1CC1` (stereo not drawn) [Compound 397] yielded a pIC50 (recombinant RSV complex) greater than 6.00 and a pEC50 (RSV replicon) greater than 6.00.

With `COc1cc(C(=O)NCC(O)(c2cc(C3(N)CCC3)cc(-c3ccc(F)c(Cl)c3)n2)C(F)(F)F)ccc1OC1CC1` (stereo not drawn) [Compound 355] the pIC50 (recombinant RSV complex) was greater than 6.00 and the pEC50 (RSV replicon) was greater than 6.00.

Work on `COc1cc(C(=O)NCC(O)(c2cc3c(c(-c4ccc(Br)cc4)n2)OCC3(C)N)C(F)(F)F)ccc1OCCO` (stereo not drawn) [Compound 651] yielded a pIC50 (recombinant RSV complex) greater than 6.00 and a pEC50 (RSV replicon) greater than 6.00.

Molecule `CNC(C)(C)c1cc(-c2ccc(F)cc2)nc(C(O)(CNC(=O)c2ccc(OC3CC3)c(OC)c2)C(F)(F)F)c1` (stereo not drawn) [Compound 393] has a pIC50 (recombinant RSV complex) greater than 6.00 and a pEC50 (RSV replicon) greater than 6.00.

`COc1cc(C(=O)NCC(C)(OC)c2ccc(OC)c(-c3ccc(F)c(Cl)c3)n2)ccc1OC1CC1` (stereo not drawn) [Compound 376] gave a pIC50 (recombinant RSV complex) greater than 6.00 and a pEC50 (RSV replicon) greater than 6.00.

In the case of `COc1ccc(C(=O)NCC(O)(c2cc(C(C)(C)N)cc(-c3ccc(F)c(Cl)c3)n2)C(F)(F)F)cc1OC` (stereo not drawn) [Compound 316], the pIC50 (recombinant RSV complex) was greater than 6.00 and the pEC50 (RSV replicon) was greater than 6.00.

`COc1cc(C(=O)NCC(O)(c2cc(C(C)(N)CO)cc(-c3ccc(F)cc3)n2)C(F)(F)F)ccc1OC1CC1` (stereo not drawn) [Compound 600] gave a pIC50 (recombinant RSV complex) greater than 6.00 and a pEC50 (RSV replicon) greater than 6.00.

`COc1cc(C(=O)NCC(O)(c2cc(C(C)(C)N)cc(-c3ccc(F)cc3)n2)C(F)(F)F)ccc1O[C@H]1CCNC1=O` (stereo partly drawn) [Compound 319] was tested, and the pIC50 (recombinant RSV complex) was greater than 6.00 and the pEC50 (RSV replicon) was greater than 6.00.

Molecule `COc1cc(C(=O)NCC(C)(O)c2ccc(OC)c(-c3ccc(F)c(Cl)c3)n2)ccc1-n1cccn1` (stereo not drawn) [Compound 128] has a pIC50 (recombinant RSV complex) greater than 6.00 and a pEC50 (RSV replicon) of 4.30 to 6.00.

`COc1cc(C(=O)NCC(O)(c2cc(C(C)(C)N)cc(-c3ccc(F)c(Br)c3)n2)C(F)(F)F)ccc1OC1CC1` (stereo not drawn) [Compound 524] showed a pIC50 (recombinant RSV complex) greater than 6.00 and a pEC50 (RSV replicon) greater than 6.00.

`COc1cc(C(=O)NCC(O)(c2ccc(OC)c(-c3ccc(F)c(Cl)c3)n2)C2CC2)ccc1OCC(N)=O` (stereo not drawn) [Compound 398] gave a pIC50 (recombinant RSV complex) greater than 6.00 and a pEC50 (RSV replicon) greater than 6.00.

`CCNCc1cc(-c2ccc(F)cc2)nc(C(O)(CNC(=O)c2ccc(OC3CC3)c(OC)c2)C(F)(F)F)c1` (stereo not drawn) [Compound 389] was tested, and the pIC50 (recombinant RSV complex) was greater than 6.00 and the pEC50 (RSV replicon) was greater than 6.00.

Work on `COc1cc(C(=O)NCC(O)(c2cc(C(C)(C)N)cc(-c3ccc(F)c(Cl)c3)n2)C(F)(F)F)ccc1OCC(C)OC(=O)OC(C)C` (stereo not drawn) [Compound 572] yielded a pIC50 (recombinant RSV complex) greater than 5.00 and a pEC50 (RSV replicon) greater than 6.00.

Molecule `COc1cc(C(=O)NCC(C)(O)c2cc3c(c(-c4ccc(F)c(Cl)c4)n2)OCC=C3)ccc1OCCO` (stereo not drawn) [Compound 307] has a pIC50 (recombinant RSV complex) greater than 6.00 and a pEC50 (RSV replicon) greater than 6.00.

`COc1cc(C(=O)NCC(O)(c2cc3c(c(-c4ccc(F)cc4)n2)OCC3(C)N)C(F)(F)F)ccc1OC1CC1` (stereo not drawn) [Compound 509] gave a pIC50 (recombinant RSV complex) greater than 6.00 and a pEC50 (RSV replicon) greater than 6.00.

Work on `COc1cc(C(=O)NCC(O)(c2cc([C@]3(C)CCN3)cc(-c3ccc(F)c(Cl)c3)n2)C(F)(F)F)ccc1OC1CC1` (stereo partly drawn) [Compound 603] yielded a pIC50 (recombinant RSV complex) greater than 6.00 and a pEC50 (RSV replicon) greater than 6.00.

`COc1cc(C(=O)NCC(C)(O)c2ccc(OC)c(-c3ccc(F)c(Cl)c3)n2)ccc1-c1ccncc1` (stereo not drawn) [Compound 147] was tested, and the pIC50 (recombinant RSV complex) was greater than 6.00 and the pEC50 (RSV replicon) was greater than 6.00.
